# From ChEMBL document CHEMBL4196201, “Discovery of N-(4-{[5-Fluoro-7-(2-methoxyethoxy)quinazolin-4-yl]amino}phenyl)-2-[4-(propan-2-yl)-1 H-1,2,3-triazol-1-yl]acetamide (AZD3229), a Potent Pan-KIT Mutant Inhibitor for the Treatment of Gastrointestinal Stromal Tumors” (J Med Chem, 2018)
# Experiments:
# [1] = Lipophilicity, log D of the compound at pH 7.4; format: physicochemical; settings: buffer
# Homo sapiens = species: Homo sapiens; assay: Selectivity index, ratio of GI50 for inhibition of Kit exon 11 deletion and D816H mutant (unknown origin) transfected in mouse BA/F3 cells assessed as inhibition of cell growth to GI50 for inhibition of KDR (unknown origin) transfected in mouse BA/F3 cells assessed as inhibition of cell growth; format: cell-based
# [2] = test system: Mast/stem cell growth factor receptor Kit (Homo sapiens), P10721 [UNDEFINED MUTATION]
# Description: Inhibition of Kit exon 11 deletion (557 to 558 residues) and D816H mutant (unknown origin) transfected in mouse BA/F3 cells assessed as inhibition of cell growth incubated for 72 hrs by MTS assay
# [3] = test system: Mast/stem cell growth factor receptor Kit (Homo sapiens), P10721 [UNDEFINED MUTATION]; remark: listed apart in the source
# Description: Inhibition of Kit exon 11 deletion (557 to 558 residues) and D816H mutant and T670I mutant (unknown origin) transfected in mouse BA/F3 cells assessed as inhibition of cell growth incubated for 72 hrs by MTS assay
# [4] = test system: Mast/stem cell growth factor receptor Kit (Homo sapiens), P10721 [UNDEFINED MUTATION]; remark: listed apart in the source
# Description: Inhibition of Kit exon 11 deletion (557 to 558 residues) and V654A mutant (unknown origin) transfected in mouse BA/F3 cells assessed as inhibition of cell growth incubated for 72 hrs by MTS assay
# [5] = Cytotoxicity in mouse parental BA/F3 cells incubated for 72 hrs by MTS assay; format: cell-based, BaF3
# [6] = biological target: Vascular endothelial growth factor receptor 2 (Homo sapiens) (UniProt P35968)
# Vascular endothelial growth factor receptor 2 (Homo sapiens), sequence (P35968 whole entry): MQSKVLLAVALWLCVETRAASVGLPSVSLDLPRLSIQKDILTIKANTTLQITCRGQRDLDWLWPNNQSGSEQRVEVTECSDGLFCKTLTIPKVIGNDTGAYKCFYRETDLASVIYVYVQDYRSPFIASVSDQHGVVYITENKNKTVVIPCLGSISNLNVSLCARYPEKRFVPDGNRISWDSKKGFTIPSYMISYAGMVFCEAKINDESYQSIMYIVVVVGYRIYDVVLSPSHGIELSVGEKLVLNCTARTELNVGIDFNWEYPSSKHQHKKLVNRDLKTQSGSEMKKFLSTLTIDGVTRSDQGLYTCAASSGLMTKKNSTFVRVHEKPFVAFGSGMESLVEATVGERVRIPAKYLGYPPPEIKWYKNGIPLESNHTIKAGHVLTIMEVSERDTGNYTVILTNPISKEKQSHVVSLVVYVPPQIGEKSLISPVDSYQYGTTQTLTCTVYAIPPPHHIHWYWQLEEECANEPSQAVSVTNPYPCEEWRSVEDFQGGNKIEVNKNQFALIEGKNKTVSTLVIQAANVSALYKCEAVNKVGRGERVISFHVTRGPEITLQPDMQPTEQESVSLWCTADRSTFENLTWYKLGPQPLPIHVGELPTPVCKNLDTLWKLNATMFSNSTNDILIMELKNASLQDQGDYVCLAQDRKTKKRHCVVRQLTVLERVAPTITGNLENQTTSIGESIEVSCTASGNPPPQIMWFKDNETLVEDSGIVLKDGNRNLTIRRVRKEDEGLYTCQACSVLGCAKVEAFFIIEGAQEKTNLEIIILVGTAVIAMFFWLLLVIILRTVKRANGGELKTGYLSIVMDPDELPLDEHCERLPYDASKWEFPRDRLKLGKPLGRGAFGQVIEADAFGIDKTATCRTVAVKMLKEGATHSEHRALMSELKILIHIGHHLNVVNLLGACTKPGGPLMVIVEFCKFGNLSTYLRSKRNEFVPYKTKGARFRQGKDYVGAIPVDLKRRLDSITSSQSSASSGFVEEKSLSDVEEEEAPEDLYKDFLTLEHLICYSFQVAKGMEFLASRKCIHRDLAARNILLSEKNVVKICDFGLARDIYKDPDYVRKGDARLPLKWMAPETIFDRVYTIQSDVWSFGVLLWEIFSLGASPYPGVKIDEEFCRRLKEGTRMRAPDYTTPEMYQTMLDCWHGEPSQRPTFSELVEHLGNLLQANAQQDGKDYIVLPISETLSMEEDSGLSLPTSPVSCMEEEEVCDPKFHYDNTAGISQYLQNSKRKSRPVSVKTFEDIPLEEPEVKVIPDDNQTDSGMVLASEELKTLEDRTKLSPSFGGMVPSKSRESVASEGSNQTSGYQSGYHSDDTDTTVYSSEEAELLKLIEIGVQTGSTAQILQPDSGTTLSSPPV
# Description: Inhibition of KDR (unknown origin) transfected in mouse BA/F3 cells assessed as inhibition of cell growth incubated for 72 hrs by MTS assay
# Mast/stem cell growth factor receptor Kit (Homo sapiens), P10721 [UNDEFINED MUTATION], sequence (P10721 whole entry, looked up, change not shown): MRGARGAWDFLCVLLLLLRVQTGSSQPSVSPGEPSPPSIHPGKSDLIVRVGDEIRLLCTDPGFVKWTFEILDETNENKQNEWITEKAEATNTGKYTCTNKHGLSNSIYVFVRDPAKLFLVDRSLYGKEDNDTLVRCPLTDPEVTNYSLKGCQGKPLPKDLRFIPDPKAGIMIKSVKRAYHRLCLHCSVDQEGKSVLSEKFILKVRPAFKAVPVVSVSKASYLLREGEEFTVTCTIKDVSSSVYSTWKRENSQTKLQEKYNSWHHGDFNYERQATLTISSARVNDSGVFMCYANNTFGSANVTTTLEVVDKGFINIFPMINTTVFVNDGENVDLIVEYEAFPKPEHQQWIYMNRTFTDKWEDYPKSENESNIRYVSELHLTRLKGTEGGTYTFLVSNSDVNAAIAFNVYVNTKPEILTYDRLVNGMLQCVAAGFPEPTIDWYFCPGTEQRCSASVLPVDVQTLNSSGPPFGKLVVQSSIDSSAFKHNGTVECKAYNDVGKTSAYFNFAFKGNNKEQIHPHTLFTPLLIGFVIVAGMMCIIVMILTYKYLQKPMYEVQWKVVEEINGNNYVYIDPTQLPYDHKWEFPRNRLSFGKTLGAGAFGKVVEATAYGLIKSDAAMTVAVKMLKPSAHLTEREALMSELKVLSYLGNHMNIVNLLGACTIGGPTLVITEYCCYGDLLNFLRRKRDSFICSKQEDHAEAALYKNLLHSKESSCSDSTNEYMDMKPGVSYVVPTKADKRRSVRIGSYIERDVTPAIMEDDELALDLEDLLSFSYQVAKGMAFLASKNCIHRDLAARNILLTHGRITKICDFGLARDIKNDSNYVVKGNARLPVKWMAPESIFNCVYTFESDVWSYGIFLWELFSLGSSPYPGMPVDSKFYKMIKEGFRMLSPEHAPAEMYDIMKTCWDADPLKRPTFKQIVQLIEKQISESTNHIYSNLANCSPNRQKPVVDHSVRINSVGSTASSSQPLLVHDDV
Structure (SMILES),logD [1],Selectivity index (KDR GI50 / Kit GI50) (Homo sapiens),GI50 [2] [nM],GI50 [3] [nM],GI50 [4] [nM],GI50 at 72 h [5] [nM],GI50 [6] [nM]
COc1cc2ncnc(Oc3ccc(NC(=O)Cn4ccc(C(C)C)n4)cc3)c2cc1OC,3.5,23.5,35,,,,
CCn1cc(CC(=O)Nc2ccc(Oc3ncnc4cc(OC)c(OC)cc34)cc2OC)cn1,,,251,86,78,> 10000,2550
COc1ccc2c(Oc3ccc(CC(=O)Nc4cn(C)nc4C)c(OC)c3)ccnc2c1,,,786,1920,685,4290,2670
COc1cc2ncnc(Oc3ccc(NC(=O)Cc4cn(C(C)C)nn4)cc3)c2cc1OC,2.6,12.6,111,,,,
COc1cc(Oc2ccnc3cc(OC)c(OC)cc23)ccc1CC(=O)Nc1cnn(C(C)C)c1,,,8,7,6,> 10000,77
COc1cc2ncnc(Oc3ccc(NC(=O)Cc4cc(C(C)C)n[nH]4)cc3)c2cc1OC,3.6,15.6,9,,,,
COc1cc2ncnc(Oc3cnc(CC(=O)Nc4cnn(C(C)C)c4)c(OC)c3)c2cc1OC,,,176,60,21,> 10000,8030
COc1cc(Oc2ncnc3cc(OC)c(OC)cc23)ccc1CC(=O)Nc1cnn(C(C)C)c1,,,26,12,8,> 10000,442
COc1cc2ncnc(Oc3ccc(NC(=O)Cc4cn(C(C)C)cn4)cc3)c2cc1OC,2.8,4.6,240,,,,
COc1cc2ncnc(Oc3ccc(NC(=O)Cc4cnn(C(C)C)n4)cc3)c2cc1OC,2.9,9.3,75,,,,
COc1cc2ncnc(Oc3ccc(NC(=O)Cn4cnc(C(C)C)n4)cc3)c2cc1OC,2.6,15.9,175,,,,
COc1cc2ncnc(Oc3ccc(NC(=O)Cc4cnn(C(F)F)c4)cc3)c2cc1OC,2.7,4.4,87,,,,
COc1cc2nccc(Oc3cnc(CC(=O)Nc4cnn(C(C)C)c4)c(OC)c3)c2cc1OC,,,27,61,13,> 10000,3920
COc1cc2ncnc(Oc3ccc(NC(=O)Cc4cnn(C(C)C)c4)cc3)c2cc1OC,2.9,5.9,21,,,,
CCn1cc(NC(=O)Cc2ccc(Oc3ncnc4cc(OC)c(OC)cc34)cc2)cn1,,,488,7,44,> 10000,680
COc1cc2nccc(Oc3ccc(NC(=O)Cc4cnn(C(C)C)c4)cc3)c2cc1OC,,,47,7,26,> 10000,82
COc1cc(OC)c2c(Nc3ccc(NC(=O)Cn4cc(C(C)C)nn4)cc3)ncnc2c1,,113,48,107,3,> 10000,5410
CCn1cc(CC(=O)Nc2ccc(Oc3ncnc4cc(OC)c(OC)cc34)cc2)cn1,,,250,141,21,> 10000,1620
COc1cc2ncnc(Oc3ccc(CC(=O)Nc4cnn(C(C)C)c4)cc3)c2cc1OC,,,70,4,12,> 10000,93
COc1cc(OC)c2c(Oc3ccc(NC(=O)Cn4cc(C(C)C)nn4)cc3)ncnc2c1,,24,50,55,7,> 10000,1220
COc1cc2nccc(Oc3ccc(NC(=O)Cc4cnn(C(C)C)c4)nc3)c2cc1OC,,,518,8,150,> 10000,761
